Experimental data reported in US10517889B2, “Modulators of SMAD7 expression” (Ionis Pharmaceuticals, Inc., priority 2017, dated 2019).
Strand notation (5' to 3'): a small letter for the sugar, then the base; units joined by * are phosphorothioate-linked, units joined directly phosphodiester-linked; [ ] holds rarer units or linkages, { } end groups; capitals alone tell only the bases. e = 2'-O-(2-methoxyethyl) (MOE); [5mC] = 5-methylcytosine; d = 2'-deoxy (DNA)

Experiments:
[1] = test system: human SMAD7 mRNA; experiment: Antisense inhibition of human SMAD7 mRNA expression in Hep3B cells by 5-10-5 MOE gapmers, single concentration, electroporation, RT-PCR (Example 1, Study 1 and 2); format: cell-based
Outline: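 Hep3B cells (20,000/well) electroporated with 5-10-5 MOE gapmer at 5,000 nM or 15,000 nM for approximately 24 h. SMAD7 mRNA quantified by real-time PCR with primer probe set RTS5062 and normalized to RIBOGREEN total RNA. Values are percent inhibition relative to untreated controls.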

[2] = test system: human SMAD7 mRNA; experiment: Dose-dependent inhibition of human SMAD7 mRNA expression in Hep3B cells (Example 3, Study 1 and 2); format: cell-based; conditions: electroporation; for % inhibition of SMAD7 mRNA expression: approximately 16 hours; for IC50: Study 1 (312.5-20000 nM)
Outline: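 Hep3B cells, 20,000 per well, electroporated with antisense oligonucleotide at 0.31, 1.25, 5.00 or 20.00 μM (first series) or 0.74, 2.22, 6.67 or 20.00 μM (second series). After ~16 h, SMAD7 mRNA measured by RT-qPCR (RTS5062), normalised to RIBOGREEN total RNA. Percent inhibition vs untreated cells; IC50 derived.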

[3] = electroporation with 15,000 nM antisense oligonucleotide (Study 2), 5-10-5 MOE gapmers targeting SEQ ID NO: 1 and 2
[4] = electroporation, 15,000 nM antisense oligonucleotide (Study 2), 5-10-5 MOE gapmers targeting SEQ ID NO: 1 and 2
[5] = 312.5 nM, Study 1, relative to untreated control cells

Substance	% Inhibition of SMAD7 mRNA [1, 3] [%]	% inhibition of SMAD7 mRNA expression [1, 4] [%]	% inhibition of SMAD7 mRNA expression [2, 5] [%]	% inhibition of SMAD7 mRNA expression ([2]; 1250.0 nM, Study 1) [%]	% inhibition of SMAD7 mRNA expression ([2]; 5000.0 nM, Study 1) [%]	% inhibition of SMAD7 mRNA expression ([2]; 20000.0 nM, Study 1) [%]	IC50 [2] [µM]	% inhibition of SMAD7 mRNA expression [1, 3] [%]	% inhibition of SMAD7 mRNA expression ([1]; electroporation, 15,000 nM, approximately 24 hours, relative to untreated control cells, gapmers targeting SEQ ID NO: 1 and 2) [%]	% Inhibition ([1]; Study 2, electroporation with 15,000 nM antisense oligonucleotide, 5-10-5 MOE gapmers targeting SEQ ID NO: 1 and 2) [%]
771387 (antisense eA*eG*e[5mC]*eA*eT*d[5mC]*dT*dG*dG*dA*d[5mC]*dA*dG*dT*d[5mC]*eT*eG*e[5mC]*eT*eG) [compound 771387]	59	6	8	13	28	70	10	–	–	–
771634 (antisense eT*eG*eA*e[5mC]*eG*dG*dA*d[5mC]*d[5mC]*dA*dA*dA*dT*d[5mC]*d[5mC]*eT*eT*e[5mC]*eT*eT) [compound 771634]	–	–	0	3	40	36	> 20	53	–	–
771770 (antisense e[5mC]*eT*eG*eT*eT*dG*dG*d[5mC]*dA*dG*dT*dG*d[5mC]*dT*d[5mC]*e[5mC]*e[5mC]*eA*e[5mC]*e[5mC]) [compound 771770]	–	61	0	11	27	51	> 20	–	–	–
771661 (antisense eA*eA*eT*eG*e[5mC]*dT*dT*d[5mC]*dT*d[5mC]*dT*dT*dG*dT*dT*e[5mC]*eA*eT*eT*eT) [compound 771661]	–	–	0	0	6	28	> 20	–	69	–
771822 (antisense e[5mC]*eA*e[5mC]*e[5mC]*eA*dA*dA*dA*d[5mC]*dA*dA*dG*dT*dG*dT*e[5mC]*eT*eA*e[5mC]*e[5mC]) [compound 771822]	–	–	0	0	30	45	> 20	–	–	44
